Active and inactive are the calls of the source.
Experiments:
[1] = test system: INS1; test: protection from cytokine-driven beta-cell apoptosis, dose response, JC-1 fluorescence, INS-1E, dry powder, set 2 (AID 488867); assay type: functional, cell-based; details: Rattus norvegicus
[2] = test system: INS1; test: inhibitors of cytokine-induced nitrite release, dose response, cell-based, Griess absorbance, INS-1E, dry powder (AID 488866); assay type: functional; details: Rattus norvegicus
[3] = test system: INS1; test: protection of INS-1E cells from cytokine death, dose response, ATP luminescence, dry powder (AID 488844); assay type: functional, cell-based; details: Rattus norvegicus
[4] = test system: INS1; test: inhibitors of cytokine-induced nitrite release, dose response, cell-based, Griess absorbance, INS-1E, dry powder, set 2 (AID 488868); assay type: functional; details: Rattus norvegicus
[5] = test system: INS1; test: protection from cytokine-induced mitochondrial depolarization, dose response, cell-based, INS-1E, JC-1 fluorescence ratio, dry powder (AID 488931); assay type: functional; details: Rattus norvegicus
[6] = target: T1, Sentrin-specific protease 6 (Homo sapiens, UniProt Q9GZR1); test: SAR Analysis of small molecule inhibitors of Sentrin-specific protease 6 (SENP6) using a Luminescent assay. [Related pubchem assays (depositor defined):AID2582, AID2599]; assay type: functional
T1 sequence (Q9GZR1 whole entry): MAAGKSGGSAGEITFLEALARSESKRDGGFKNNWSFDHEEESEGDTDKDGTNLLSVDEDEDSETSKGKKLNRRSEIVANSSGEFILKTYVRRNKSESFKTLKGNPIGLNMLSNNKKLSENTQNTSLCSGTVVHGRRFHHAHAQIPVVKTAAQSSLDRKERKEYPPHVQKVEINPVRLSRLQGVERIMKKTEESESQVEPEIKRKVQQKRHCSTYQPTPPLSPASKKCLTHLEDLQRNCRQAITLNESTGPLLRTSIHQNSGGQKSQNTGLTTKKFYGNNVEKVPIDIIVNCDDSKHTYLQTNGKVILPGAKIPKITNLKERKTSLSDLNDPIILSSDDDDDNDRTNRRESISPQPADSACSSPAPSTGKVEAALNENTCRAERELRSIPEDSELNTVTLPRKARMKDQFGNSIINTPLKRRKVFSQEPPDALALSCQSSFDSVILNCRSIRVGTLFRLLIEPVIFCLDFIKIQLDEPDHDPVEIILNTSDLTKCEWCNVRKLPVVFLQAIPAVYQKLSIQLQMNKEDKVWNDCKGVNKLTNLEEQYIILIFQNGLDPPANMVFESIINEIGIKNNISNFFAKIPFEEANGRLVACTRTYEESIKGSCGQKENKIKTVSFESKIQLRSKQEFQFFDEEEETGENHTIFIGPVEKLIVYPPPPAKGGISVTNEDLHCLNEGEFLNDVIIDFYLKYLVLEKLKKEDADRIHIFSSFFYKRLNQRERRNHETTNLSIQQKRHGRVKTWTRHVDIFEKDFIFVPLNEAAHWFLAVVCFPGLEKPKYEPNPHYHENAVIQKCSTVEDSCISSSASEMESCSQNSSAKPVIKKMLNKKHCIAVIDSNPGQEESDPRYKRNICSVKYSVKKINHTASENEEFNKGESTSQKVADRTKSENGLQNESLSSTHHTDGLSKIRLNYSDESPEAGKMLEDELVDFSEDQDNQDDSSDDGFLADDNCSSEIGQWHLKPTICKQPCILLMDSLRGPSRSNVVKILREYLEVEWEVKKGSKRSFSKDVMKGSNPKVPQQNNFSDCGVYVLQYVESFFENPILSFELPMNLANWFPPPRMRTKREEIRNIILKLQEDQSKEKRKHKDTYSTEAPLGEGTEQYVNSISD

[7] = target: T2, Caspase-3 (Homo sapiens, UniProt P42574); test: SAR Analysis of small molecule inhibitors of Sentrin-specific proteases (SENPs) using a Caspase-3 Selectivity assay. [Related pubchem assays (depositor defined):AID2540, AID2599, AID434973, AID489001]; assay type: functional
T2 sequence (P42574 whole entry): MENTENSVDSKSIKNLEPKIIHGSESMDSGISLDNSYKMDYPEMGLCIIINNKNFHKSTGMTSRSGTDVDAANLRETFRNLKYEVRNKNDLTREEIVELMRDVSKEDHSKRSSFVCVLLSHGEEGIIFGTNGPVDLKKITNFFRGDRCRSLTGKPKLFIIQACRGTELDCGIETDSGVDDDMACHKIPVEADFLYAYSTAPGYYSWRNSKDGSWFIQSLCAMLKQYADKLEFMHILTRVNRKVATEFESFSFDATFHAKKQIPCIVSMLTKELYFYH

[8] = target: T3, Sentrin-specific protease 8 (Homo sapiens, UniProt Q96LD8); test: SENP8 protease inhibitors, SAR follow-up, biochemical, luminescence (AID 504501); assay type: functional
T3 sequence (Q96LD8 whole entry): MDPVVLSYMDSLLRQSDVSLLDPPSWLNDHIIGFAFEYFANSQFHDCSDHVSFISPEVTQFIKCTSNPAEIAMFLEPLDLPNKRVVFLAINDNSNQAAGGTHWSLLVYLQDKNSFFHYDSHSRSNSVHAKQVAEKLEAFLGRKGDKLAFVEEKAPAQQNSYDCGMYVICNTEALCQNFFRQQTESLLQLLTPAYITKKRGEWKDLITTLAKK

[9] = target: T4, Sentrin-specific protease 7 (Homo sapiens, UniProt Q9BQF6); test: SENP7 protease inhibitors, SAR follow-up, biochemical, luminescence (AID 504497); assay type: functional
T4 sequence (Q9BQF6 whole entry): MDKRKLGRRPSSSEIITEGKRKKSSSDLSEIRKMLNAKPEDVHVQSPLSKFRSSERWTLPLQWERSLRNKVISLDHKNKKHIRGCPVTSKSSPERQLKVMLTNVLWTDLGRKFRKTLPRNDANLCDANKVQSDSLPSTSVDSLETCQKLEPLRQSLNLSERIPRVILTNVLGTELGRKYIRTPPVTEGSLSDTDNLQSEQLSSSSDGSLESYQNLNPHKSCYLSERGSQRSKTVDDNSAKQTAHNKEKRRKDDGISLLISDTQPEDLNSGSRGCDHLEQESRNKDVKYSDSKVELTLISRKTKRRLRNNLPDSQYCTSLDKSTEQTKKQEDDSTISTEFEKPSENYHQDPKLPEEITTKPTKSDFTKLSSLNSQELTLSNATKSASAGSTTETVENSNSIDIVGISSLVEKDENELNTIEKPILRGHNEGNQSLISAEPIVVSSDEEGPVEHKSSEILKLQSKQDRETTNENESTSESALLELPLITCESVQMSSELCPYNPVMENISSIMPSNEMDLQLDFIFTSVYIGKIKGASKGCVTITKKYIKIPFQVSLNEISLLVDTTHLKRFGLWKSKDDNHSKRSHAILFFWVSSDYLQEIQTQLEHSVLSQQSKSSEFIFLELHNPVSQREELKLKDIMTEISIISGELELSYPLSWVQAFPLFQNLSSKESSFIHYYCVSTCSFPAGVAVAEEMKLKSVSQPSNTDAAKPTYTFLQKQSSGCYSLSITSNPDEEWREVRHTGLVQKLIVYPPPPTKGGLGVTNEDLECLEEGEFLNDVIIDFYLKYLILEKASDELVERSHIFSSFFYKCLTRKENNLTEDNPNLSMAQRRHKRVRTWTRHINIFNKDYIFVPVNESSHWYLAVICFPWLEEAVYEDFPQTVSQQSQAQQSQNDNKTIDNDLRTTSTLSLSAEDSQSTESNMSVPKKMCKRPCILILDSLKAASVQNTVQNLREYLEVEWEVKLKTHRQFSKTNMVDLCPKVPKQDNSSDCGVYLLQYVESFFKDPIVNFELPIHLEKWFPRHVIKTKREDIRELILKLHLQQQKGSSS

[10] = target: T3, Sentrin-specific protease 8; test: SENP8 protease inhibitors, SAR follow-up, biochemical, luminescence, set 2 (AID 588601); assay type: functional
[11] = target: T4, Sentrin-specific protease 7; test: SENP7 protease inhibitors, SAR follow-up, biochemical, luminescence, set 2 (AID 588600); assay type: functional
[12] = target: T1, Sentrin-specific protease 6; test: SENP6 protease inhibitors, SAR follow-up, biochemical, luminescence, set 2 (AID 588598); assay type: functional
[13] = target: T2, Caspase-3; test: caspase-3 inhibitors as off-family protease, SAR follow-up, selectivity assay for SENP protease inhibitor project, biochemical, luminescence, set 2 (AID 588599); assay type: functional
[14] = target: Apoptotic protease-activating factor 1 (Homo sapiens, UniProt O14727); assay type: functional
Chain of Apoptotic protease-activating factor 1 (O14727 whole entry): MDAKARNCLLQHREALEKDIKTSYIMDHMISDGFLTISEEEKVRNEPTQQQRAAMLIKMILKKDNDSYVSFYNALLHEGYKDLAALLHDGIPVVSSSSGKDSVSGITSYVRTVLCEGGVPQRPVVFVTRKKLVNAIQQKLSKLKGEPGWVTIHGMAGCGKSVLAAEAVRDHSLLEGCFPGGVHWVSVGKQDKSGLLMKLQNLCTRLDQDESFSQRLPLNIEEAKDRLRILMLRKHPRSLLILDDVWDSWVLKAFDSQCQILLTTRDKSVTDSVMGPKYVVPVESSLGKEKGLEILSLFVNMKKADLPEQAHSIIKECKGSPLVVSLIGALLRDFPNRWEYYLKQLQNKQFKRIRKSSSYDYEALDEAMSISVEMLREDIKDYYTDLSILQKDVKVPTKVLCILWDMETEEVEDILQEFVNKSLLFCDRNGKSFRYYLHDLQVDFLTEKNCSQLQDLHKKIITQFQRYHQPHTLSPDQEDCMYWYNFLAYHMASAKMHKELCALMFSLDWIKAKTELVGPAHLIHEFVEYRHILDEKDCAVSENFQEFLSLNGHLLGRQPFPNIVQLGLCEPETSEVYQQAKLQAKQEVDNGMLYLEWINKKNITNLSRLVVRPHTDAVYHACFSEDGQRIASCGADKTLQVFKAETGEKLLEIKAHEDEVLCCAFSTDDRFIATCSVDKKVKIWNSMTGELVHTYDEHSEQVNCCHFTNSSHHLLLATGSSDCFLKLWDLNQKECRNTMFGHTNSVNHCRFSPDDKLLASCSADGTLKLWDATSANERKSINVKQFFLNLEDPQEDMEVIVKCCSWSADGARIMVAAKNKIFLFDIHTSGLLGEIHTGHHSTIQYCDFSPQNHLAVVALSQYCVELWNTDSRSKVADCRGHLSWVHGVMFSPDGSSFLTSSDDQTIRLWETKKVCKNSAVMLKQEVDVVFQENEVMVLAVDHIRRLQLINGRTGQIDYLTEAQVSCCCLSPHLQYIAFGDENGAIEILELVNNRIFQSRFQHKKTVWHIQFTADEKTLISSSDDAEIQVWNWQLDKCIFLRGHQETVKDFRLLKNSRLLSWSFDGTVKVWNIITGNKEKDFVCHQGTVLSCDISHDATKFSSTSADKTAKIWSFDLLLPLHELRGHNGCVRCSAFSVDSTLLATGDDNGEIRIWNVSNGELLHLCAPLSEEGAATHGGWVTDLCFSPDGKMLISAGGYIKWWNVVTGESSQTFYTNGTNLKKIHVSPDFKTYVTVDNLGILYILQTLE

[15] = target: Lysine-specific demethylase 4C (Homo sapiens, UniProt Q9H3R0); test: GASC-1 (JMJD2C) histone demethylase inhibitors, dose response, biochemical, DELFIA europium, cherry-picked samples (AID 488835); assay type: functional
Chain of Lysine-specific demethylase 4C (Q9H3R0 whole entry): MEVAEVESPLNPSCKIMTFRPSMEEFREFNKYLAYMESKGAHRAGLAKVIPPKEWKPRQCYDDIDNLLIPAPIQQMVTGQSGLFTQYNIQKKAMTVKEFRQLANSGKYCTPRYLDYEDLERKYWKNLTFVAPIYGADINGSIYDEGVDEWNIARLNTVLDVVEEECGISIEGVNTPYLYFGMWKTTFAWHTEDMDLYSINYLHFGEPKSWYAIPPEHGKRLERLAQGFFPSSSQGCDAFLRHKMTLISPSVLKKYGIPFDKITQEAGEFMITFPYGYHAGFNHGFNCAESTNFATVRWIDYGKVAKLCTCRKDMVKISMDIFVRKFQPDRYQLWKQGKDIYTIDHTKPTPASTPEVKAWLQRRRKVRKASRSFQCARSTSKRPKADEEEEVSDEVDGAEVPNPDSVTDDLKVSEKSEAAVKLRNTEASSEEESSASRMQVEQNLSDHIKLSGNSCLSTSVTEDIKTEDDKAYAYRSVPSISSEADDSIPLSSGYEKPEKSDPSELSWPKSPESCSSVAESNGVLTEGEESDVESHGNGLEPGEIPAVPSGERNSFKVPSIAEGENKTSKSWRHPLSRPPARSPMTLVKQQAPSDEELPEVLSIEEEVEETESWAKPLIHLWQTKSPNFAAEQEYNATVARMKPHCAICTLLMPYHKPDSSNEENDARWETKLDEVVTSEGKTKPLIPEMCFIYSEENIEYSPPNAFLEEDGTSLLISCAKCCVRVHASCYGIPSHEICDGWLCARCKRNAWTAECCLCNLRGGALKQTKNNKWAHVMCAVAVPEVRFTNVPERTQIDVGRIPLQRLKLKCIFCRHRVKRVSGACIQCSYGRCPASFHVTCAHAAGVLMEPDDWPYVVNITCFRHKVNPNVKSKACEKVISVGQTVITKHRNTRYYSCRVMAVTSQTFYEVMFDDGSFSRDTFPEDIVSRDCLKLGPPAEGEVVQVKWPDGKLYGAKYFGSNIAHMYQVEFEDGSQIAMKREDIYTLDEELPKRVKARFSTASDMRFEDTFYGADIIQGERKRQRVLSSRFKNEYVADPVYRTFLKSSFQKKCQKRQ

[16] = target: T5, Serine/threonine-protein phosphatase (Candida dubliniensis (strain CD36 / CBS 7987 / NCPF 3949 / NRRLY-17841) (Yeast), UniProt B9W6M3); test: calcineurin pathway inhibitors in yeast reporter, dose response, S. cerevisiae, CDRE-lacZ, luminescence, secondary (AID 2388); assay type: functional, cell-based;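 note: yeast reporter cells carrying a calcineurin-responsive lacZ construct stimulated with calcium chloride; luminescent beta-galactosidase reporter signal in whole cells rather than isolated phosphatase activity; potency for inhibition where a drop in reporter signal means calcineurin blockade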
T5 sequence (B9W6M3 whole entry): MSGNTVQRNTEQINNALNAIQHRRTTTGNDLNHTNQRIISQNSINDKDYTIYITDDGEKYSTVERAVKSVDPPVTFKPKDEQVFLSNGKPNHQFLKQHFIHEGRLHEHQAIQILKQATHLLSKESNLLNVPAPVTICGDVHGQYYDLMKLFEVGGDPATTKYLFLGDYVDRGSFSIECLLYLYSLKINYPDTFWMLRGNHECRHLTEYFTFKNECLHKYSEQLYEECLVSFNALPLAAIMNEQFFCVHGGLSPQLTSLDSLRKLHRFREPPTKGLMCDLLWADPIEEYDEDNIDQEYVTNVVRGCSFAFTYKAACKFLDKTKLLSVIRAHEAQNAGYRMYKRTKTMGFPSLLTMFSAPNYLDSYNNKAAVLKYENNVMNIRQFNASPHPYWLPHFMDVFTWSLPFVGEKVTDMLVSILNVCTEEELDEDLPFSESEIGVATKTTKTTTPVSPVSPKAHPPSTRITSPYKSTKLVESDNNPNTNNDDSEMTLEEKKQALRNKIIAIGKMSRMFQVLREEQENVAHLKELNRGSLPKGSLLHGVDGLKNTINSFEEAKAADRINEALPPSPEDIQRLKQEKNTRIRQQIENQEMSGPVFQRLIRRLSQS

[17] = cytotoxicity toward NIH3T3 fibroblasts, dose response, counter-screen, cell-based, ATP luminescence, mouse fibroblasts (AID 2010); assay type: functional;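 note: cells exposed to compound for about 90 hours before reading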
[18] = target: ATP-dependent molecular chaperone HSP82 (Candida albicans (strain WO-1) (Yeast), UniProt C4YTQ8); test: loss of DOC-induced GRE-beta-galactosidase reporter signal, dose response, Hsp90 inhibitor project, S. cerevisiae, luminescence (AID 2400); assay type: functional, cell-based;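 note: beta-galactosidase luminescence from glucocorticoid response element reporter as proxy for Hsp90 function; inhibitor potency where signal loss means Hsp90 inhibition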
Chain of ATP-dependent molecular chaperone HSP82 (C4YTQ8 whole entry): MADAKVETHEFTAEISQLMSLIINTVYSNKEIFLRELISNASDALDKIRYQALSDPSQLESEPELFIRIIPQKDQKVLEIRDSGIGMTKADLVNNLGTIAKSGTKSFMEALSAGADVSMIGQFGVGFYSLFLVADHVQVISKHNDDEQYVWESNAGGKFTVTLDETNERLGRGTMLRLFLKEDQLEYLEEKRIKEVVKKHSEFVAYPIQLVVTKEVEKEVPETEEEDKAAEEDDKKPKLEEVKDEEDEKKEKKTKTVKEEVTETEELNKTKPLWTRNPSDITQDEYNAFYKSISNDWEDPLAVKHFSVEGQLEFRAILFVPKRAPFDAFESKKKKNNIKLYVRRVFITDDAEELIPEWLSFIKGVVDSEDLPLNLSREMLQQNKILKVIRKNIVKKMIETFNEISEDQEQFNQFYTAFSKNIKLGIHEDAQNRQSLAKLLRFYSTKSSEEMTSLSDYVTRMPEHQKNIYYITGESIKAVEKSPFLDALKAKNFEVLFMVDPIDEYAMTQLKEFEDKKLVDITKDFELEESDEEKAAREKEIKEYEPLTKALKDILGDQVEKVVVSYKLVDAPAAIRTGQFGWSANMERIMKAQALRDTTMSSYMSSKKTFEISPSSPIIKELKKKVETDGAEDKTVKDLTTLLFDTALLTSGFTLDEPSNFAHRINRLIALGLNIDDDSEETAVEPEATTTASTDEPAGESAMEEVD

[19] = cells; assay type: functional, cell-based
[20] = Luminescence-based counterscreen assay for KLF5 inhibitors: dose response cell-based high throughput screening assay to identify cytotoxic compounds using the IEC-6 intestinal epithelial cell line. [Related pubchem assays: 1700 (Primary screen.), 1834 (Confirmation screen.), 1858 (Summary AID.), 1905 (Counterscreen.)]; assay type: functional
[21] = cells; assay type: functional, cell-based; remark: listed apart in the source
[22] = C. albicans growth with fluconazole, confirmation, fluorescence, retest (AID 2467); assay type: functional, cell-based
[23] = test system: BJ; test: cytotoxicity toward BJ-TERT fibroblasts, dose response, cell-based, RAS-independent, luminescence (AID 1933); assay type: functional; details: Homo sapiens
[24] = test system: BJ; test: cells; assay type: functional, cell-based; details: Homo sapiens
[25] = inhibitors of intracellular T. cruzi replication, confirmation, NIH3T3 host cells, beta-gal luminescence (AID 2044); assay type: functional, cell-based;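 note: intracellular parasites grown in NIH/3T3 mouse fibroblasts as host cells; luminescent beta-galactosidase reporter signal from transgenic T. cruzi replicating inside host cells; inhibitors lower the luminescence signal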
[26] = target: Latent membrane protein 1 (Human herpesvirus 4 (strain B95-8), UniProt P03230); test: TES1-eGFP NF-kB reporter inhibition versus Tet-On dsRED, dose response, selectivity assay for LMP1 NF-kB inhibitor project, imaging, HEK293T, dual-color eGFP/dsRED, cherry-picks (AID 588398); assay type: functional, cell-based
Chain of Latent membrane protein 1 (P03230 whole entry): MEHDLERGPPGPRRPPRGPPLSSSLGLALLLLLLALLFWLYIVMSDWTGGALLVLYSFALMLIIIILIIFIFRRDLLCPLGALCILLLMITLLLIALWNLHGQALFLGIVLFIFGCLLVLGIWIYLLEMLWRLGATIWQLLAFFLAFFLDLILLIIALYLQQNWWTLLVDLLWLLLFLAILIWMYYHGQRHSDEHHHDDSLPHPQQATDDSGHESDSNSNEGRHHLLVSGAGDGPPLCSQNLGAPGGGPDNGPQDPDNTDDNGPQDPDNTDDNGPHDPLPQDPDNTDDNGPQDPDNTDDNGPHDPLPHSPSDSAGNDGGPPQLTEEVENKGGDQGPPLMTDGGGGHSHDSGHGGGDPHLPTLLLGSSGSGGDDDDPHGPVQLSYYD

[27] = cytotoxicity toward DRD oncogenic fibroblasts, dose response, cell-based, non-viral oncogenic, luminescence (AID 1934); assay type: functional; details: Homo sapiens
[28] = NIH-3T3 fibroblast cytotoxicity, dose response, cytotoxicity control, cell-based, fluorescence, Alamar Blue, secondary assay (AID 2327); assay type: functional;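 note: NIH-3T3 mouse fibroblasts cultured with fluconazole at 8 µg/mL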
[29] = test system: HEK293; test: inhibitors of LMP1-driven NF-kB reporter, dose response, cell-based, HEK293, luciferase, cherry-pick (AID 588343); assay type: functional; details: Homo sapiens
[30] = test system: BJ; test: cytotoxicity toward BJ-TERT-LT-ST fibroblasts, dose response, cell-based, RAS-independent, luminescence (AID 1935); assay type: functional; details: Homo sapiens;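 note: BJ fibroblasts immortalized with TERT plus LT and ST oncogenes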

C[C@@H]1CN([C@@H](C)CO)C(=O)c2cccc(NC(=O)Nc3cccc4ccccc34)c2O[C@H]1CN(C)S(=O)(=O)c1ccc(Cl)cc1
AC50 [1]: 90.1 µM (active)
AC50 [2]: > 195 µM (inactive)
AC50 [3]: 31.1 µM (active)
AC50 [4]: 44.2 µM (active)
AC50 [5]: 41.3 µM (active)

CCCCc1ccc2nc(NC(=O)c3cccs3)sc2c1
IC50 [6]: 1.9 µM (active)
IC50 [7]: 4.4 µM (active)
IC50 [8]: 2.1 µM (active)
IC50 [9]: 1.5 µM (active)
IC50 [10]: 2.07 µM (active)
IC50 [11]: 2.22 µM (active)
IC50 [12]: 2.04 µM (active)
IC50 [13]: 4.01 µM (active)

Oc1cc(N/N=C/c2ccccc2)nc(O)n1
IC50 [14]: 20 µM (active)
AC50 [15]: 8.88 µM (active)

Cc1ccc(C(=O)N/N=C/c2c(O)ccc3ccccc23)cn1
EC50 [16]: > 180 µM (inactive)
EC50 [17]: 10.9 µM (active)
EC50 [18]: > 150 µM (inactive)
EC50 [19]: > 350 µM (not active)
IC50 [20]: 3.96 µM (active)
EC50 [21]: 6.93 µM (active)
EC50 [22]: 0.803 µM (active)
EC50 [23]: 1 µM (active)
EC50 [24]: 10.4 µM (inconclusive)
EC50 [25]: 1.59 µM (active)
AC50 [26]: 9.88 µM (active)
EC50 [27]: 2.72 µM (active)
EC50 [28]: > 150 µM (inactive)
AC50 [29]: 5.41 µM (active)
EC50 [30]: 13.1 µM (active)
